Tests used:
CYP3A = assay: Inhibition of cytochrome P450 3A enzyme; type: biochemical
Excerpt: Similarly, appropriate dosing of other HIV protease inhibitors to be used in combination with atazanavir can be calculated.

HIV [1] = assay: Phase II three-arm study atazanavir vs ritonavir, each with saquinavir + 2 NRTIs: antiviral activity; type: in vivo; conditions: atazanavir groups vs ritonavir
Experimental: (§1) In another two-stage, randomized three-arm Phase II study, the antiviral activity and metabolic effects of atazanavir at two different doses (400 mg or 600 mg) was compared to ritonavir, each in combination with saquinavir over 48 weeks. The protease inhibitors were administered in combination with two nucleoside reverse transcriptase inhibitors selected from didanosine, stavudine, lamivudine or zidovudine. The selection of reverse transcriptase inhibitors (used in combination as didanosine+stavudine, stavudine+lamivudine, didanosine+zidovudine, or lamivudine+zidovudine) was based on the patient's phenotypic sensitivity and the physician's choice at the time of administration. The regimens were as follows: […]
(§2) atazanavir 400 mg QD+saquinavir 1200 mg QD+2 nucleoside reverse transcriptase inhibitors atazanavir 600 mg QD+saquinavir 1200 mg QD+2 nucleoside reverse transcriptase inhibitors ritonavir 400 mg BID+saquinavir 400 mg BID+2 nucleoside reverse transcriptase inhibitors Patients were anti-retroviral-experienced with a treatment history of receiving a minimum of 24 weeks of a protease inhibitor-containing or non-nucleoside reverse transcriptase inhibitor-containing combination regimen. Stage 1 was to randomize approximately 75 subjects to assess the safety and antiviral activity of the regimens. […]

HIV [2] = assay: Phase II randomized study atazanavir vs nelfinavir: anti-HIV activity (viral load); type: in vivo; conditions: atazanavir 200, 400 or 500 mg once daily, monotherapy two weeks then with stavudine and didanosine; treatment-naive patients
Experimental: In a Phase II randomized study, the safety and anti-HIV activity of three once daily doses of atazanavir (200 mg, 400 mg and 500 mg) was compared with 750 mg of the protease inhibitor, nelfinavir dosed three times daily. Twenty-one patients received nelfinavir in combination with stavudine and didanosine, while atazanavir was administered both as monotherapy (for two weeks) and then in combination with stavudine and didanosine to 78 treatment-naive (no prior anti-HIV therapy) patients with HIV viral loads >2000 copies per milliliter (c/mL).

[3] = set-up: species or system human; conditions: in vivo
Experimental: as §1, §2

[4] = human, in vivo
Excerpt: In clinical studies carried out on 98 HIV-positive patients who have taken atazanavir for one year, no increases in plasma LDL-cholesterol or triglycerides were observed. Thus, atazanavir is particularly useful in the treatment of HIV-positive patients who have elevated plasma LDL-cholesterol and/or triglyceride levels. It can be used as monotherapy or as part of a “cocktail” which would include other antiretroviral drugs such as reverse transcriptase inhibitors, non-nucleoside reverse transcriptase inhibitors, and other HIV protease inhibitors.

[5] = saquinavir dosed at 1200 mg TID; at steady-state; cited from earlier work

Ki (CYP3A) | LDL-cholesterol elevation over baseline [3] | increases in plasma LDL-cholesterol [4] | increases in plasma triglycerides [4] | SMILES | antiviral efficacy through week 12, compared to ritonavir (HIV [1]) | reductions in viral load compared to the nelfinavir-treated patients (HIV [2]) | increase of the exposure of saquinavir [5]
2400 nM | not elevated | no increases | no increases | COC(=O)N[C@H](C(=O)N[C@@H](Cc1ccccc1)[C@@H](O)CN(Cc1ccc(-c2ccccn2)cc1)NC(=O)[C@@H](NC(=O)OC)C(C)(C)C)C(C)(C)C [atazanavir] | similar | at least comparable | 
 |  |  |  | Cc1c(O)cccc1C(=O)N[C@@H](CSc1ccccc1)[C@H](O)CN1C[C@H]2CCCC[C@H]2C[C@H]1C(=O)NC(C)(C)C [nelfinavir] |  |  | 392%

From patent US20030045501A1, “Use of atazanavir in HIV therapy” (priority 2001, published 2003)
